Experiment [1] concerns formaldehyde induced nociceptive behaviour. The experiment in a line: Formaldehyde test in mice, second (late) phase. It counts as in vivo, mouse. The following applies: mouse, read-out: inhibition formaldehyde test (n = 10).
Experiment [2] relates to capsaicin induced hypothermie. The experiment in a line: Hypothermie assay in the mouse (capsaicin induced hypothermie). The class given is in vivo. The following applies: as printed in this column, read-out: inhibition hypothermie (n = 5).
The target of a further experiment is T1, vanilloid receptor (VR1) (Homo sapiens, UniProt Q8NER1).
T1 construct: expressed in transfected cells; host or cells: CHO K1 cells (ECACC), stably transfected
T1 sequence (Q8NER1 whole entry): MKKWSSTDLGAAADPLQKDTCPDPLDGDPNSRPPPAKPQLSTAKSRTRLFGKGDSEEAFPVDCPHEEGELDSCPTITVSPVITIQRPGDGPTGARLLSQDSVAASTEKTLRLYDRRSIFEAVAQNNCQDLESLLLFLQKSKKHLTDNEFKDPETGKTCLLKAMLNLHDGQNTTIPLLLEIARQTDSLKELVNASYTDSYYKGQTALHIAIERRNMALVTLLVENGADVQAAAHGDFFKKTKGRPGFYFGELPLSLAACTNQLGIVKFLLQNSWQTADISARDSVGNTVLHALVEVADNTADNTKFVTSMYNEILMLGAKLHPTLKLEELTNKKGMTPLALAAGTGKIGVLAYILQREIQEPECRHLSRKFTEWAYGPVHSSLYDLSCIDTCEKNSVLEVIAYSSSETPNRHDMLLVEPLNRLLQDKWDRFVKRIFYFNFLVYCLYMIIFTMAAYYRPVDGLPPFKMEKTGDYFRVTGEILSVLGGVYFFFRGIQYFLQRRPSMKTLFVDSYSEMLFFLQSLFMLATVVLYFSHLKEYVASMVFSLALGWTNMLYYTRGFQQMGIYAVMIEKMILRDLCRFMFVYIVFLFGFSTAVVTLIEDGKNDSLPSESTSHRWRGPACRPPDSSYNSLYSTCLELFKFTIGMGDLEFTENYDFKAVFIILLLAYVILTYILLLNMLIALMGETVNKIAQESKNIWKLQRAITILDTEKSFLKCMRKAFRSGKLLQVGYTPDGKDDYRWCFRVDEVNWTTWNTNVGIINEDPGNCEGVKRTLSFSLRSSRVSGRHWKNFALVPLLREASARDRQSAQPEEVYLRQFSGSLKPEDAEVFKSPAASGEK
The experiment in a line: FLIPR Ca2+ influx assay on CHO K1 cells transfected with the VR1 gene (pharmacological method II). It counts as cell-based. The note with it: table 4; capsaicin; read-out: Ki (human) Cap.

In experiment [3] the target is T2, vanilloid receptor 1 (VR1/TRPV1) of the rat species (Rattus norvegicus, UniProt O35433).
T2 construct: The spinal column is removed from decapitated rats; from tissue; host or cells: primary cells dissociated from rat dorsal root ganglia
T2 sequence (O35433 whole entry): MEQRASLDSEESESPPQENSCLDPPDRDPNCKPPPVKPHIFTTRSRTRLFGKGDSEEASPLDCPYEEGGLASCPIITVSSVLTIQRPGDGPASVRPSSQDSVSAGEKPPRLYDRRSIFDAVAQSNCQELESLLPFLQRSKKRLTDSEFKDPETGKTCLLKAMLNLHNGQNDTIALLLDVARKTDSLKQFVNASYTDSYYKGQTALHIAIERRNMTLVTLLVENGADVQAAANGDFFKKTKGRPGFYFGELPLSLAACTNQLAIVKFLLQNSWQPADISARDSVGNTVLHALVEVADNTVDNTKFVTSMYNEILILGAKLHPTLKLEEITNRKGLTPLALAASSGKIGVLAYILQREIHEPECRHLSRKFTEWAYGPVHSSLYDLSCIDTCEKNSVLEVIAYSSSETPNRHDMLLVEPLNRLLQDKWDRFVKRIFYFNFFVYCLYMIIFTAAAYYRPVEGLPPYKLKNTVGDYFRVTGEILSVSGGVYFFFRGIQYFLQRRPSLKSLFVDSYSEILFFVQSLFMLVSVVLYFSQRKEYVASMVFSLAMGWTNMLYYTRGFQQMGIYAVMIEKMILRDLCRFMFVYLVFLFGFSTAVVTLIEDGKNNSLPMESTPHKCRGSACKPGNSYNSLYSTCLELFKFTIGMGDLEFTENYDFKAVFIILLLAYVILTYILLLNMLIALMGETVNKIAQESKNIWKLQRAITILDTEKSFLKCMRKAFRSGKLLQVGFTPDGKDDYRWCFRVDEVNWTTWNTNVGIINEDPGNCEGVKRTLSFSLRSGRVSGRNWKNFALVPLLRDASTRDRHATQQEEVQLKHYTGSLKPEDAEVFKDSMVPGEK
The experiment in a line: FLIPR Ca2+ influx assay on rat dorsal root ganglia cells (pharmacological method I). The class given is cell-based. The following applies: table 4; capsaicin; read-out: Ki (rat) Cap. The method, boiled down: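 Primary rat dorsal root ganglion cells loaded with 2 μM Fluo-4, Ca2+ influx read on FLIPR as peak fluorescence. Triplicates, at least 3 independent experiments.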

Regarding `CC(C(=O)NCc1ccc(C(C)(C)C)cc1OCC(C)(C)C)c1ccc(NS(C)(=O)=O)c(F)c1` (stereo not drawn) [Compound 152], the inhibition in vivo at 1 mg/kg in experiment [1] (1 mg/kg body weight po) came out at 24%. In experiment [2] (@ 1 μM), the inhibition (in general, the change of the read-out against control, counted positive when it falls) at 1 µM is 45%.
Turning to `CC(C(=O)NCc1ccc(C(C)(C)C)cc1OCC(C)(C)C)c1ccc(NS(C)(=O)=O)c(F)c1` (stereo not drawn) [Example 152, N-[4-tert-butyl-2-(2,2-dimethyl-propoxy)-benzyl]-2-(3-fluoro-4-methylsulfonamido-phenyl)-propionamide], in experiment [1] (0.3 mg/kg body weight po), the inhibition in vivo at 0.3 mg/kg was 33%. Also, the inhibition at 10 µM in experiment [2] (@ 10 μM) amounted to 63%. The values for the Ki (at vanilloid receptor (VR1); in experiment [3]) were 3.8 nM and 2.2 nM, respectively.

Values taken from patent publication US8710233B2 (Gruenenthal GmbH, priority 2005, dated 2014).
